Several values for one entry are separate records, joined by “and”; a condition that tells them apart may be missing. Identical values can stand only once.
Assay: Optimal sampling time: pooled steady-state serum T data of LOT-AA and LOT-BB, 200 mg T BID as TU
Format: in vivo, hypogonadal men
Experimental: An investigation was conducted to identify a single optimal sampling time for monitoring the responsiveness of hypogonadal male patients subjects to chronic BID dosing of T using a SEDDS formulation of TU. Concentration data and derived pharmacokinetic parameters for 41 subjects from two studies (LOT-AA and LOT-BB) where subjects received 200 mg BID of T, as TU, for at least seven days were used in this investigation. Correlation and contingency table approaches were used in the investigation.
Concentration data and pharmacokinetic parameters from hypogonadal male subjects that participated in study LOT-AA and study LOT-BB were combined into a single data set. From study LOT-AA, only the information from Day 7 of Treatment 3 (8 days of treatment with 200 mg BID of T, as TU) was used. Study LOT-AA contributed data from 26 subjects treated for 7 days, and study LOT-BBBB contributed data from 15 subjects treated for 28 days with 200 mg BID of T, as TU. Combining of the data from these two groups of subjects is supported by the finding from study LOT-BBBB that T steady-state is reached in 5-7 days.
The sample collection times for these two studies both spanned a 12-hour window, but not all sample collection times were common to both studies. LOT-AA used sample collection times of 0, 1, 2, 4, 8 and 12 hours; LOT-BBBB used sample collection times of 0, 1.5, 3, 4, 5, 6, 8 and 12 hours. The current analysis used the superset of the combined set of collection times (0, 1, 1.5, 2, 3, 4, 5, 6, 8 and 12 hours). Concentration values that were missing for a subject in either of the data sets at a particular sample collection time were estimated by linear interpolation, using the existing nearest neighbor concentration values for that subject, i.e., interpolation of missing data was subject-specific.

[1] = LOT-AA subjects, estimated by linear interpolation
[2] = LOT-BB subjects, estimated by linear interpolation
[3] = targeted Cavg 300-1000, 41 subjects

For CCCCCCCCCCC(=O)O[C@H]1CC[C@H]2[C@@H]3CCC4=CC(=O)CC[C@]4(C)[C@H]3CC[C@]12C [TU, testosterone undecanoate], the “T concentration 3 hr, individual subjects” value [1] was 777 ng/dL and 785 ng/dL and 590 ng/dL and 433 ng/dL and 984 ng/dL and 1030 ng/dL and 1345 ng/dL and 936 ng/dL and 164 ng/dL and 183 ng/dL and 193 ng/dL and 353 ng/dL and 844 ng/dL and 700 ng/dL and 411 ng/dL and 891 ng/dL and 438 ng/dL and 271 ng/dL and 243 ng/dL and 160 ng/dL and 415 ng/dL and 308 ng/dL and 1270 ng/dL and 918 ng/dL and 837 ng/dL and 546 ng/dL, the “T concentration 5 hr, individual subjects” value [1] was 978 ng/dL and 778 ng/dL and 686 ng/dL and 595 ng/dL and 865 ng/dL and 847 ng/dL and 1289 ng/dL and 886 ng/dL and 209 ng/dL and 248 ng/dL and 324 ng/dL and 311 ng/dL and 1065 ng/dL and 788 ng/dL and 418 ng/dL and 1012 ng/dL and 579 ng/dL and 427 ng/dL and 450 ng/dL and 205 ng/dL and 380 ng/dL and 503 ng/dL and 1533 ng/dL and 740 ng/dL and 768 ng/dL and 969 ng/dL and the “T concentration 6 hr, individual subjects” value [1] was 856 ng/dL and 606 ng/dL and 540 ng/dL and 590 ng/dL and 690 ng/dL and 653 ng/dL and 1048 ng/dL and 703 ng/dL and 232 ng/dL and 248 ng/dL and 423 ng/dL and 314 ng/dL and 789 ng/dL and 648 ng/dL and 415 ng/dL and 1145 ng/dL and 503 ng/dL and 539 ng/dL and 622 ng/dL and 216 ng/dL and 367 ng/dL and 639 ng/dL and 1296 ng/dL and 597 ng/dL and 588 ng/dL and 1283 ng/dL. For the same molecule, the “T concentration […], individual subjects” value [1] was 371 ng/dL and 435 ng/dL and 297 ng/dL and 272 ng/dL and 632 ng/dL and 595 ng/dL and 845 ng/dL and 802 ng/dL and 162 ng/dL and 87 ng/dL and 150 ng/dL and 427 ng/dL and 214 ng/dL and 312 ng/dL and 454 ng/dL and 1081 ng/dL and 267 ng/dL and 241 ng/dL and 204 ng/dL and 116 ng/dL and 492 ng/dL and 237 ng/dL and 757 ng/dL and 654 ng/dL and 457 ng/dL and 403 ng/dL, the “T concentration 1 hr, individual subjects” value (LOT-AA subjects, observed) was 287 ng/dL and 251 ng/dL and 246 ng/dL and 280 ng/dL and 335 ng/dL and 170 ng/dL and 530 ng/dL and 801 ng/dL and 183 ng/dL and 57 ng/dL and 140 ng/dL and 456 ng/dL and 80 ng/dL and 153 ng/dL and 506 ng/dL and 1260 ng/dL and 314 ng/dL and 256 ng/dL and 199 ng/dL and 105 ng/dL and 547 ng/dL and 225 ng/dL and 744 ng/dL and 354 ng/dL and 187 ng/dL and 368 ng/dL and the “T concentration 2 hr, individual subjects” value (LOT-AA subjects, observed) was 454 ng/dL and 619 ng/dL and 347 ng/dL and 264 ng/dL and 928 ng/dL and 1020 ng/dL and 1160 ng/dL and 802 ng/dL and 140 ng/dL and 116 ng/dL and 159 ng/dL and 397 ng/dL and 348 ng/dL and 471 ng/dL and 402 ng/dL and 902 ng/dL and 219 ng/dL and 226 ng/dL and 208 ng/dL and 126 ng/dL and 437 ng/dL (2×) and 248 ng/dL and 770 ng/dL and 953 ng/dL and 726 ng/dL. For the same molecule, the “T concentration 1 hr, individual subjects” value [2] was 545 ng/dL and 531 ng/dL and 279 ng/dL (2×) and 92 ng/dL and 152 ng/dL and 161 ng/dL and 234 ng/dL and 446 ng/dL and 869 ng/dL and 248 ng/dL and 365 ng/dL and 127 ng/dL and 233 ng/dL and 271 ng/dL, the “T concentration 2 hr, individual subjects” value [2] was 506 ng/dL and 725 ng/dL and 490 ng/dL and 149 ng/dL and 168 ng/dL and 394 ng/dL and 281 ng/dL and 812 ng/dL and 770 ng/dL and 461 ng/dL and 274 ng/dL and 166 ng/dL and 350 ng/dL and 346 ng/dL and 349 ng/dL and the “T concentration 3 hr, individual subjects” value (LOT-BB subjects, observed) was 425 ng/dL and 778 ng/dL and 723 ng/dL and 243 ng/dL and 241 ng/dL and 873 ng/dL and 360 ng/dL and 1440 ng/dL and 684 ng/dL and 908 ng/dL and 179 ng/dL and 259 ng/dL and 553 ng/dL and 461 ng/dL and 445 ng/dL. For the same molecule, the “T concentration 5 hr, individual subjects” value (LOT-BB subjects, observed) was 486 ng/dL and 1020 ng/dL and 332 ng/dL and 125 ng/dL and 1230 ng/dL and 714 ng/dL and 1270 ng/dL and 1690 ng/dL and 514 ng/dL and 999 ng/dL and 214 ng/dL and 458 ng/dL and 1330 ng/dL and 289 ng/dL and 507 ng/dL, the “T concentration 6 hr, individual subjects” value (LOT-BB subjects, observed) was 671 ng/dL and 1660 ng/dL and 292 ng/dL and 238 ng/dL and 828 ng/dL and 773 ng/dL and 972 ng/dL and 1340 ng/dL and 593 ng/dL and 538 ng/dL and 620 ng/dL and 351 ng/dL and 1420 ng/dL and 320 ng/dL and 441 ng/dL and the “T concentration […], individual subjects” value (LOT-BB subjects, observed) was 547 ng/dL and 699 ng/dL and 374 ng/dL and 102 ng/dL and 132 ng/dL and 155 ng/dL and 242 ng/dL and 498 ng/dL and 813 ng/dL and 237 ng/dL and 321 ng/dL and 120 ng/dL and 249 ng/dL and 288 ng/dL and 301 ng/dL. For the same molecule, the “C(0), Max” value (serum T, N 41) was 1600 ng/dL, the “C(0), Mean” value (serum T, N 41) was 363 ng/dL and the “C(0), Median” value (serum T, N 41) was 244 ng/dL. For the same molecule, the “C(0), Min” value (serum T, N 41) was 61.0 ng/dL, the “C(1), Max” value (serum T, N 41) was 1260 ng/dL and the “C(1), Mean” value (serum T, N 41) was 338 ng/dL. For the same molecule, the “C(1), Median” value (serum T, N 41) was 271 ng/dL, the “C(1), Min” value (serum T, N 41) was 57.3 ng/dL and the “C(1.5), Max” value (serum T, N 41) was 1081 ng/dL. For the same molecule, the “C(1.5), Mean” value (serum T, N 41) was 391 ng/dL, the “C(1.5), Median” value (serum T, N 41) was 312 ng/dL and the “C(1.5), Min” value (serum T, N 41) was 86.6 ng/dL. The “C(2), Max” value (serum T, N 41) was 1160 ng/dL, the “C(2), Mean” value (serum T, N 41) was 466 ng/dL and the “C(2), Median” value (serum T, N 41) was 397 ng/dL. The “C(2), Min” value (serum T, N 41) was 116 ng/dL, the “C(3), Max” value (serum T, N 41) was 1440 ng/dL and the “C(3), Mean” value (serum T, N 41) was 600 ng/dL. The “C(3), Median” value (serum T, N 41) was 546 ng/dL, the “C(3), Min” value (serum T, N 41) was 160 ng/dL and the “C(4), Max” value (serum T, N 41) was 1770 ng/dL. The “C(4), Mean” value (serum T, N 41) was 745 ng/dL, the “C(4), Median” value (serum T, N 41) was 720 ng/dL and the “C(4), Min” value (serum T, N 41) was 127 ng/dL. The “C(5), Max” value (serum T, N 41) was 1690 ng/dL, the “C(5), Mean” value (serum T, N 41) was 708 ng/dL and the “C(5), Median” value (serum T, N 41) was 686 ng/dL. For the same molecule, the “C(5), Min” value (serum T, N 41) was 125 ng/dL, the “C(6), Max” value (serum T, N 41) was 1660 ng/dL and the “C(6), Mean” value (serum T, N 41) was 673 ng/dL. For the same molecule, the “C(6), Median” value (serum T, N 41) was 606 ng/dL, the “C(6), Min” value (serum T, N 41) was 216 ng/dL and the “C(8), Max” value (serum T, N 41) was 1910 ng/dL. The “C(8), Mean” value (serum T, N 41) was 537 ng/dL, the “C(8), Median” value (serum T, N 41) was 367 ng/dL and the “C(8), Min” value (serum T, N 41) was 225 ng/dL. The “C(12), Max” value (serum T, N 41) was 757 ng/dL, the “C(12), Mean” value (serum T, N 41) was 278 ng/dL and the “C(12), Median” value (serum T, N 41) was 222 ng/dL. The “C(12), Min” value (serum T, N 41) was 84.2 ng/dL, the “Cavg, Max” value (serum T, N 41) was 1057 ng/dL and the “Cavg, Mean” value (serum T, N 41) was 517 ng/dL. The “Cavg, Median” value (serum T, N 41) was 454 ng/dL, the “Cavg, Min” value (serum T, N 41) was 192 ng/dL and the “Cmax, Max” value (serum T, N 41) was 1910 ng/dL. For the same molecule, the “Cmax, Mean” value (serum T, N 41) was 970 ng/dL, the “Cmax, Median” value (serum T, N 41) was 951 ng/dL and the “Cmax, Min” value (serum T, N 41) was 249 ng/dL. The “Number of subjects, Cavg in range” value [3] was 33, the “Number of subjects, Cavg too high” value [3] was 3 and the “Number of subjects, Cavg too low” value [3] was 5.

Source: patent US20210220374A1, “METHODS OF TREATING TE[…]” (Clarus Therapeutics, Inc., priority 2013, published 2021)
